Reference: article PMC12592502, “Unraveling the mechanisms behind the enhanced efficacy of β-lactam-based sideromycins” (Communications Biology, 2025)
Converted amounts (≈) assume the structure as drawn. Like-named read-outs stand apart in the source and are kept apart here. Marks after values point to notes of the source that are not given here.

How the values were obtained:
E. coli ΔentE = assay: MIC, Keio mutant; format: cell-based, Escherichia coli
Protocol: (§1) All bacterial strains (see description and sources Table S1) were stored at −80 °C, and grown on tryptone soya agar (TSA) at 35 °C. The iron-deprived (ID)-MHBCA (cation-adjusted Muller-Hinton Broth, Becton Dickinson, Mississauga, ON, Canada) medium was prepared as reported by refs. [21],[50]. Briefly, MHBCA was treated with 10% Chelex® 50-100 mesh (Sigma) and stirred for 6 h at room temperature. The resin was removed by filtration. Divalent Ca^2+ (CaCl2), Mg^2+ (MgCl2), and Zn^2+(ZnSO4), were then added in the iron-depleted medium at 22, 12, and 1 μg/ml respectively. Finally, the pH was adjusted to 7.3, and the medium was sterilized with a 0.2-μm filter. Regular MHBCA (i.e., not treated with Chelex®) was used to compare the inhibitory activity of conjugates in iron-sufficient conditions.
(§2) Minimal inhibitory concentrations (MICs) were performed using a broth microdilution technique according to the Clinical and Laboratory Standards Institute (CLSI) guidelines. MICs were determined in MHBCA and in ID-MHBCA. To check the impact of β-lactamases, MICs in the presence of a β-lactamase inhibitor were also determined. The inhibitor was homogenized at 2X the final concentration and added to the bacterial inoculum just before distributing cells into the wells containing the drug dilutions. The final concentration of each inhibitor was 4 μg/mL for clavulanic acid (tested against K. pneumoniae) and 200 μg/mL for 3-aminophenylboronic acid (tested against P. aeruginosa and A. baumannii).

E. coli ΔfecA = assay: MIC, Keio mutant; format: cell-based, Escherichia coli
Protocol: as §1, §2

E. coli ΔfepA = assay: MIC, Keio mutant; format: cell-based, Escherichia coli
Protocol: as §1, §2

E. coli ΔtonB = assay: MIC, Keio mutant; format: cell-based, Escherichia coli
Protocol: as §1, §2

E. coli MC4100 = assay: MIC; format: cell-based, Escherichia coli; conditions: for MIC in combination with PAβN: + 25 µg/mL PAβN
Protocol: as §1, §2

OXA-98 = OXA-98 (Acinetobacter baumannii, UniProt D0C7W4); assay: biochemical; parameters: species or system A. baumannii ATCC 19606
Protocol: Enzyme concentrations were 20 nM for AmpC and SHV-1, and 50 nM for OXA-98. Quartz cuvette (FireflySci Inc., Northport, NY) with 1 cm length path and 2 mm inside width was used with an Ultrospec 2100 Pro (Biochrom, Harvard Bioscience Inc., USA) to acquire the kinetic measures. […] The following extinction coefficients (Δε) and wavelengths (λ) were used:
The steady-state parameters (Km and Kcat) were determined by plotting the initial velocity against substrate concentrations (Michaelis–Menten curve). The Kcat was measured using the Vmax (μM/sec) divided by the total enzyme concentration and the catalytic efficiency was further calculated (Kcat/Km). SHV-1 parameters were determined with three Michaelis–Menten curves of at least seven substrate concentrations, while OXA-98 and AmpC were duplicates of curves of at least seven substrate concentrations. […] Initial velocities were measured at room temperature (25 °C). The Vmax and Km were calculated using least squares fit regression in GraphPad version 10.2.2. Ki was measured using a derivative of IC50 with an adaptation of the Cheng–Prusoff equation[55]. […] The corrected Ki was calculated using this formula: Kicorrected=Ki(observed)/1+S/KmNCF

[1] = Antibiotic stability in medium without bacteria
Source text: This method used ultra-performance liquid chromatography-mass spectrometry (UPLC-MS) to measure the amount of test antibiotics remaining in bacterial culture supernatants over time as a means to measure antibiotic uptake by bacterial cells. The method assumes that all antibiotic molecules in the medium (i.e., those that we measured by UPLC-MS) are not bound to the PBP targets in the periplasm, whereas it is assumed that the bactericidal effect (ΔCFU/mL) is correlated to antibiotic uptake and binding to PBPs. The test strain E. coli MC4100 was cultivated overnight in 10 mL of MHBCA or ID-MHBCA at 37 °C with shaking (200 rpm). The next day, the overnight culture was diluted in fresh preheated medium to obtain an OD600 of ~0.7 in MHBCA or ID-MHBCA. The culture was further diluted 1:2 in MHBCA or ID-MHBCA (growth controls), or in MHBCA or ID-MHBCA containing the freshly prepared test antibiotic (2 × the final concentration) to obtain an initial OD600 of ~0.35 (corresponding to 8.5 log10 CFU/mL) and 200 μM of antibiotic (final concentration). Antibiotics were also added to preheated MHBCA or ID-MHBCA without bacteria to control for the stability of the molecules in the medium over time. The moment bacteria were put in contact with the test antibiotic corresponded to the first time point (0 h). For each time point thereafter, 200 μL of sample from both assay and stability test tubes were retrieved and centrifuged at 4 °C for 5 min at 8000 × g. All supernatants were filtered (0.2 μm) and flash frozen in liquid nitrogen for transport. After melting, 2 μL of the samples were injected in the UPLC-MS before the analysis. In parallel, 20 μL of assay and growth control tubes were serially diluted in 96-well plates. Ten μL of each dilution was spotted on TSA plates and incubated for 24 h at 37 °C for CFU counting.
For analysis, the determined concentration in the supernatant was adjusted for the degradation of the molecules measured in the stability control tests for each time point. The final net antibiotic concentration in the medium was calculated at each time point by adding the concentration caused by degradation to the concentration of the test antibiotic measured in the assay tubes containing bacteria. […] A second control was added for the β-lactam LOR and CEF to verify the impact of metabolic waste on the stability of the molecules. The supernatant from the 4-h growth control without antibiotic was collected by filtration 0.2 µm. LOR and CEF were then added to the filtrated supernatant at 200 µM, and degradation was measured after 3 h.

[2] = Escherichia coli, MC4100, MC4100, ID-MHBCA (−), read-out: MIC
[3] = Escherichia coli, MC4100, MC4100, MHBCA (+), without PAβN, read-out: MIC
[4] = Escherichia coli, MC4100, MHBCA (+), without PAβN, read-out: MIC
[5] = MC4100, efflux pump mutant table S5, read-out: MIC

OXA-98, sequence (D0C7W4 entry or part of it): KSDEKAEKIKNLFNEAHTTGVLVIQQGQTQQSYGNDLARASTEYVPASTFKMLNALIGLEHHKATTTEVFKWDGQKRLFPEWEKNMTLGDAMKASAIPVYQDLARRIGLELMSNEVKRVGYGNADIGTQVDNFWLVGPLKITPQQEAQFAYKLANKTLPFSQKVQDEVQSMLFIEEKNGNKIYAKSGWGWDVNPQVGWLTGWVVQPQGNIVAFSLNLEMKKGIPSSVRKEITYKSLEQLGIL

SMILES	MIC (E. coli ΔentE; Escherichia coli, ID-MHBCA)	MIC (E. coli ΔentE; Escherichia coli, MHBCA)	MIC (E. coli ΔfecA; Escherichia coli, ID-MHBCA)	MIC (E. coli ΔfecA; Escherichia coli, MHBCA)	MIC (E. coli ΔfepA; Escherichia coli, ID-MHBCA)	MIC (E. coli ΔfepA; Escherichia coli, MHBCA)	MIC (E. coli ΔfepA; MHBCA)	MIC (E. coli ΔtonB; Escherichia coli)	MIC (E. coli ΔtonB; ΔtonB, MHBCA)	MIC (E. coli MC4100; [2])	MIC ratio unconjugated β-lactam/conjugate (E. coli MC4100; MC4100, ID-MHBCA)	MIC ratio unconjugated β-lactam/conjugate (E. coli MC4100; MC4100, MHBCA)	MIC in combination with PAβN (E. coli MC4100; MC4100, MHBCA)	MIC (E. coli MC4100; [3])	MIC (E. coli MC4100; [4])	MIC (E. coli MC4100; [5])	hydrolysis by OXA-98 (OXA-98)	percentage of antibiotic degradation ([1]; 2 h, ID-MHBCA)	percentage of antibiotic degradation ([1]; 2 h, MHBCA)	percentage of antibiotic degradation ([1]; 4 h, ID-MHBCA)	further results
CC1(C)SC2C(NC(=O)C(NC(=O)CN(CCCCNC(=O)c3cccc(O)c3O)C(=O)c3cccc(O)c3O)c3ccccc3)C(=O)N2C1C(=O)O (stereo not shown) [BAMP, bis-catechol (azotochelin)-ampicillin]	0.05 µM (≈ 0.0375 µg/mL)	0.2 µM (≈ 0.15 µg/mL)	0.006 µM (≈ 0.0045 µg/mL)	≤ 0.003 µM	0.024 µM (≈ 0.018 µg/mL)	0.1 to 0.4 µM (≈ 0.075 to 0.3 µg/mL)	0.2 µM (≈ 0.15 µg/mL)	50 µM (≈ 37.5 µg/mL)	50^c μM	0.024 µM (≈ 0.018 µg/mL)	512	256	0.2 µM	–	–	–	–	–	–	–	MIC (E. coli MC4100; Escherichia coli, MC4100): 0.05 µM (≈ 0.0375 µg/mL); Ki (OXA-98): 499 ± 4 µM
O=C(CN(CCCCNC(=O)c1cccc(O)c1O)C(=O)c1cccc(O)c1O)NC(C(=O)NC1C(=O)N2C(C(=O)O)=C(Cl)CCC12)c1ccccc1 (stereo not shown) [BLOR, bis-catechol (azotochelin)-loracarbef]	0.012 µM (≈ 0.009 µg/mL)	0.05 µM (≈ 0.0375 µg/mL)	≤ 0.003 µM	≤ 0.003 µM	0.012 µM (≈ 0.009 µg/mL)	0.1 to 0.4 µM (≈ 0.075 to 0.3 µg/mL)	0.1 µM (≈ 0.075 µg/mL)	50 µM (≈ 37.5 µg/mL)	–	0.006 µM (≈ 0.0045 µg/mL)	512	256	0.2 µM	0.012 µM (≈ 0.009 µg/mL)	0.024 µM (≈ 0.018 µg/mL)	0.024 µM (≈ 0.018 µg/mL)	No hydrolysis	NDD	6%	3%	percentage of antibiotic degradation ([1]; 4 h, MHBCA): 15%; percentage of antibiotic degradation ([1]; 6 h, ID-MHBCA): 6%; percentage of antibiotic degradation ([1]; 6 h, MHBCA): 15%; percentage of antibiotic degradation ([1]; 8 h, ID-MHBCA): 14%; percentage of antibiotic degradation ([1]; 8 h, MHBCA): 26%; percentage of antibiotic degradation ([1]; 10 h, ID-MHBCA): 9%; percentage of antibiotic degradation ([1]; 10 h, MHBCA): 22%; percentage of antibiotic degradation ([1]; 24 h, ID-MHBCA): 14%; percentage of antibiotic degradation ([1]; 24 h, MHBCA): 28%
O=C(CCC(=O)N(CCCCNC(=O)c1cccc(O)c1O)CCCNC(=O)c1cccc(O)c1O)NCCCCCN(O)C(=O)CCCC(=O)NC(C(=O)NC1C(=O)N2C(C(=O)O)=C(Cl)CSC12)c1ccccc1 (stereo not shown) [MCEF, mixed ligand bis-catechol-mono-hydroxamate-cefaclor]	1.6 µM (≈ 1.73 µg/mL)	13 µM (≈ 14.1 µg/mL)	> 200 µM	13 µM (≈ 14.1 µg/mL)	> 200 µM	13 µM (≈ 14.1 µg/mL)	–	25 µM (≈ 27 µg/mL)	–	> 200 µM	< 0.016	–	> 200 µM	6.3 to 25 µM (≈ 6.81 to 27 µg/mL)	6.3 µM (≈ 6.81 µg/mL)	6.3 µM (≈ 6.81 µg/mL)	No hydrolysis	5%	12%	18%	percentage of antibiotic degradation ([1]; 4 h, MHBCA): 25%; percentage of antibiotic degradation ([1]; 6 h, ID-MHBCA): 22%; percentage of antibiotic degradation ([1]; 6 h, MHBCA): 29%; percentage of antibiotic degradation ([1]; 8 h, ID-MHBCA): 31%; percentage of antibiotic degradation ([1]; 8 h, MHBCA): 41%; percentage of antibiotic degradation ([1]; 10 h, ID-MHBCA): 29%; percentage of antibiotic degradation ([1]; 10 h, MHBCA): 38%; percentage of antibiotic degradation ([1]; 24 h, ID-MHBCA): 43%; percentage of antibiotic degradation ([1]; 24 h, MHBCA): 54%
N[C@@H](C(=O)N[C@@H]1C(=O)N2C(C(=O)O)=C(Cl)CC[C@H]12)c1ccccc1 [LOR, loracarbef, reference compound]	–	–	–	–	–	–	6.3 µM (≈ 2.2 µg/mL)	–	6.3 µM (≈ 2.2 µg/mL)	–	–	–	6.3 µM	–	–	3.1 µM (≈ 1.08 µg/mL)	No hydrolysis	–	–	–	MIC (E. coli ΔentE; ID-MHBCA): 6.3 µM (≈ 2.2 µg/mL); MIC (E. coli ΔentE; MHBCA): 6.3 µM (≈ 2.2 µg/mL); MIC (E. coli ΔfecA; ID-MHBCA): 6.3 µM (≈ 2.2 µg/mL); MIC (E. coli ΔfecA; MHBCA): 3.1 µM (≈ 1.08 µg/mL); MIC (E. coli ΔfepA; ID-MHBCA): 13 µM (≈ 4.55 µg/mL); MIC (E. coli MC4100; MC4100, ID-MHBCA (−), read-out: MIC): 3.1 µM (≈ 1.08 µg/mL); MIC (E. coli MC4100; MC4100, MHBCA (+), without PAβN, read-out: MIC): 3.1 µM (≈ 1.08 µg/mL); percentage of antibiotic degradation [1]: NDD
N[C@@H](C(=O)N[C@@H]1C(=O)N2C(C(=O)O)=C(Cl)CS[C@H]12)c1ccccc1 [CEF, cefaclor, reference compound]	6.3 µM (≈ 2.32 µg/mL)	6.3 µM (≈ 2.32 µg/mL)	6.3 µM (≈ 2.32 µg/mL)	6.3 µM (≈ 2.32 µg/mL)	25 µM (≈ 9.2 µg/mL)	13 µM (≈ 4.78 µg/mL)	–	13 µM (≈ 4.78 µg/mL)	–	3.1 µM (≈ 1.14 µg/mL)	–	–	13 µM	6.3 µM (≈ 2.32 µg/mL)	–	–	No hydrolysis	–	–	–	percentage of antibiotic degradation ([1]; 2 h, 200 μM): 14%
